Results from USRE43932E1, “Crystal modification of a N-phenyl-2-pyrimidineamine derivative, processes for its manufacture and its use” (Novartis AG, priority 1997, dated 2013).

Key:
PDGF receptor = assay: PDGF-stimulated receptor tyrosine kinase activity in PDGF receptor immune complexes of BALB/c 3T3 cells; format: biochemical
Procedure: The inhibition of PDGF-stimulated receptor tyrosine kinase activity in vitro is measured in PDGF receptor immune complexes of BALB/c 3T3 cells, as described by E. Andrejauskas-Buchdunger and U. Regenass in Cancer Research 52, 5353-5358 (1992).

[1] = test system: angiogenic effect of growth factors (VEGF, PDGF, bFGF); assay: Subcutaneous agar chamber angiogenesis model with growth factor; format: in vivo, mice (C57 BL/6); conditions: mice, oral dose of 50 mg/kg once daily, chambers removed after 5 days
Procedure: Dosing is started one day before implantation of the chambers. The chambers are removed after 5 days. The angiogenic efficacy is quantified by measuring both the vascularised tissue which has grown around the implant and the blood content of this tissue (external blood). The blood is determined by measuring the haemoglobin.

[2] = Flow properties of the crystals; format: physicochemical; conditions: for solid dosage forms
[3] = test system: tracheal allogenic transplants; conditions: 50 mg/kg combined with CsA 1 mg/kg s.c.
Excerpt: In contrast to patients without OB, those with OB often show an elevated PDGF concentration in bronchoalveolar lavage fluids.

[4] = test system: denuded left common carotid artery; assay: Rat carotid artery denudation, cell counts and BrdU labelling; format: in vivo, male Wistar rats
denuded thoracic aorta = assay: Rat thoracic aorta denudation, cell counts; format: in vivo, male Wistar rats; conditions: rats, 50 mg/kg i.p. per day

## Cc1ccc(NC(=O)c2ccc(CN3CCN(C)CC3)cc2)cc1Nc1nccc(-c2cccnc2)n1 [compound of formula I]
PDGF receptor
  PDGF-dependent acellular receptor phosphorylation: inhibits
[1]
  Angiogenic effect of growth factors (VEGF, PDFG, bFGF): inhibits

## CS(=O)(=O)O.Cc1ccc(NC(=O)c2ccc(CN3CCN(C)CC3)cc2)cc1Nc1nccc(-c2cccnc2)n1 [α-crystal form]
[2]
  Flow properties: unfavourable

## CS(=O)(=O)O.Cc1ccc(NC(=O)c2ccc(CN3CCN(C)CC3)cc2)cc1Nc1nccc(-c2cccnc2)n1 [β-crystal form]
[2]
  Flow properties: substantially more favourable than those of the α-crystal form
[3]
  Effect of combination with CsA: synergism
[4]; first two labelling periods (0-72 and 72-96 h)
  Absolute number of BrdU-labelled cells in the intima, media, and adventitia: slight decrease
[4]; labelling after 93-96 h
  Number of BrdU-labelled cells in all compartments: decrease
[4]; rats, 50 mg/kg i.p. per day, 4 days after denudation
  Cell count for smooth-muscle cells in the carotid: significant decrease
[4]; rats, 50 mg/kg i.p. per day, carotid denudation
  Cell count in the adventitia and the media: significant reduction
Denuded thoracic aorta
  Number of smooth-muscle cells in aorta-denuded animals: Decreases
